Measured values from patent US20200288710A1, “SUBSTITUTED SULPHONAMIDES FOR CONTROLLING ANIMAL PESTS” (BAYER CROPSCIENCE AKTIENGESELLSCHAFT, priority 2016, published 2020).

Assays:
Assay type in all cases: in vivo
Meloidogyne incognita = Meloidogyne incognita test; details: 336 h, lettuce, after 14 days, read-out: nematicidal efficacy (formation of galls)
Method in brief: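 Gall formation on lettuce roots scored after 14 days: 0% means gall count equals untreated control, 100% means none. Sand vessels held the compound (acetone concentrate diluted in water), southern root-knot nematode egg/larvae suspension and lettuce seeds.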

Myzus persicae [1] = test: Myzus persicae spray test (Chinese cabbage leaf discs); details: foliar, 120 h, after 5-6 days, read-out: efficacy
Method in brief: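 Formulated compound in acetone/dimethylformamide, diluted in water with 1000 ppm emulsifier, was sprayed onto Brassica pekinensis leaf discs carrying mixed-stage Myzus persicae. Percent mortality was read 5-6 days later (0% = no aphids killed, 100% = all killed).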

Myzus persicae [2] = test: Myzus persicae oral test; details: 120 h, 20 ppm, oral uptake, after 5 days, read-out: efficacy
Method in brief: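 Aphids of mixed ages imbibe, through parafilm, compound solution (acetone stock, water-diluted) combined with sugar-supplemented IPL41 medium to 200 μl. Efficacy read at day 5 as percent killed, 0% meaning no deaths.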

| Structure (SMILES) | pest or weed control at 20 ppm (Meloidogyne incognita) [%] | pest or weed control at 500 g/ha (Myzus persicae [1]) [%] | pest or weed control at 20 ppm (Myzus persicae [2]) [%] | pest or weed control at 100 g/ha (Myzus persicae [1]; 100 g/ha) [%] |
| --- | --- | --- | --- | --- |
| Cn1cc(C(=O)NS(=O)(=O)c2ccc(Cl)s2)nc1-c1c(F)cccc1F [Example 352] | 100 | 90 | 100 |  |
| CCSc1ccccc1S(=O)(=O)NC(=O)c1cn(C)c(-c2c(F)cccc2F)n1 [Example 169] | 90 | 100 | 100 |  |
| Cn1cc(C(=O)NS(=O)(=O)c2c(Cl)cccc2Cl)nc1-c1ccccc1F [Example 96] | 100 | 100 | 100 |  |
| Cn1cc(C(=O)NS(=O)(=O)c2c(Cl)cc(Cl)cc2Cl)nc1-c1c(F)cccc1F [Example 435] | 90 | 100 | 100 |  |
| Cc1ccccc1S(=O)(=O)NC(=O)c1cn(C)c(-c2ncccc2F)n1 [Example 500] | 90 | 100 | 100 |  |
| CCc1[nH]c(-c2cccc(C(C)C)c2)nc1C(=O)NS(=O)(=O)c1ccccc1Cl [Example 613] | 90 |  | 100 | 90 |
| Cc1ccccc1S(=O)(=O)NC(=O)c1cc(C)n(-c2ccccc2Cl)n1 [Example 272] | 100 | 100 | 100 |  |
| Cn1cc(C(=O)NS(=O)(=O)c2ccc(F)cc2Br)nc1-c1c(F)cccc1F [Example 438] | 90 | 100 | 90 |  |
| CSc1cccc(Cl)c1S(=O)(=O)NC(=O)c1cn(C)c(-c2ccccc2Cl)n1 [Example 422] | 90 | 90 | 100 |  |
| Cn1cc(C(=O)NS(=O)(=O)c2cc(C(F)(F)F)ccc2Cl)nc1-c1c(F)cccc1F [Example 453] | 90 | 90 | 100 |  |
| Cc1cc(C(=O)NS(=O)(=O)c2ccccc2Br)nn1-c1ncccc1Br [Example 296] | 90 | 90 | 90 |  |
| Cn1cc(C(=O)NS(=O)(=O)c2ccccc2OC(F)(F)F)nc1-c1ccccc1Cl [Example 55] | 90 | 90 | 100 |  |
| Cc1cc(C(=O)NS(=O)(=O)c2ccccc2Cl)nn1-c1ncccc1Br [Example 295] | 90 | 100 | 100 |  |
| COc1ccc(Br)c(S(=O)(=O)NC(=O)c2cn(C)c(-c3cccc(Cl)c3Cl)n2)c1 [Example 557] | 90 | 90 | 100 |  |
| Cn1nc(C(=O)NS(=O)(=O)c2ccccc2Cl)nc1-c1ccccc1Cl [Example 14] | 90 | 90 | 100 |  |
| Cn1cc(C(=O)NS(=O)(=O)c2sccc2Br)nc1-c1c(F)cccc1F [Example 354] | 90 | 100 | 100 |  |
| Cc1cc(C(=O)NS(=O)(=O)c2ccccc2Cl)nn1-c1c(F)cccc1F [Example 1] | 100 | 100 | 100 |  |
| Cn1cc(C(=O)NS(=O)(=O)c2ccc(Cl)cc2)nc1-c1c(Cl)cccc1Cl [Example 43] | 100 | 90 | 90 |  |
| COc1cc(C(=O)NS(=O)(=O)c2c(Cl)cccc2Cl)nn1-c1ccccc1Cl [Example 270] | 100 | 90 | 100 |  |
| Cn1cc(C(=O)NS(=O)(=O)c2cccc3c2OC(F)(F)C(F)(F)O3)nc1-c1c(F)cccc1F [Example 312] | 90 | 90 | 100 |  |
| Cn1cc(C(=O)NS(=O)(=O)c2ccc(Br)cc2Cl)nc1-c1c(F)cccc1F [Example 440] | 100 | 100 | 100 |  |
| COc1cc(C(=O)NS(=O)(=O)c2ccccc2Br)nn1-c1ccccc1Cl [Example 277] | 90 | 100 | 100 |  |
| Cc1cc(C(=O)NS(=O)(=O)c2ccccc2Cl)nn1-c1ncccc1Cl [Example 273] | 90 | 100 | 100 |  |
